From article PMC8286840, “Identifying SARS-CoV-2 antiviral compounds by screening for small molecule inhibitors of Nsp3 papain-like protease” (Biochemical Journal, 2021) come the findings set out here.

The target of assay [1] is T1, SARS-CoV-2 PLpro (nsp3 1564–1878) (Severe acute respiratory syndrome coronavirus 2, UniProt P0DTD1). As to the kind of experiment: biochemical. The note with it: low concentration screen, read-out: % of control remaining. Details: FRET-quenched peptide (Pro3) cleavage by PLpro, 10 min pre-incubation, slope over 20 min, normalised to no-compound control.
Assay [2] concerns the target T1, SARS-CoV-2 PLpro (nsp3 1564–1878). As to the kind of experiment: biochemical. Details: FRET-quenched peptide (Pro3) cleavage by PLpro, 10 min pre-incubation, slope over 20 min, normalised to no-compound control. The note with it: high concentration screen, read-out: % of control remaining.

The structures appear in SMILES notation. Counter-ions that a name gives are not always drawn. Like-named read-outs stand apart in the source and are kept apart here.

On to `CC(C)c1nc(CN(C)C(=O)N[C@@H](CCN2CCOCC2)C(=O)N[C@H](CC[C@H](Cc2ccccc2)NC(=O)OCc2cncs2)Cc2ccccc2)cs1` [Cobicistat (GS-9350)], for which the remaining activity at 1.25 µM in assay [1] (Well no.=5213) was 102%. Further, the remaining activity at 3.75 µM in assay [2] (Well no.=5213) was 102%.
Regarding `COc1ccc(/C=C\c2cc(OC)c(OC)c(OC)c2)cc1O` [Combretastatin A4], in assay [1] (Well no.=5540), the remaining activity at 1.25 µM is 101%. Besides, in assay [2] (Well no.=5540), the remaining activity at 3.75 µM turned out to be 102%.
As to `CCN1C[C@]2(COC)CC[C@H](O)[C@]34C1C(C[C@H]23)[C@@]1(O)C[C@H](OC)[C@H]2C[C@@H]4[C@@H]1[C@H]2OC(C)=O` [Condelphine], the remaining activity at 1.25 µM in assay [1] (Well no.=3107) is 93.3%. For the same molecule, in assay [2] (Well no.=3107), the remaining activity at 3.75 µM turned out to be 92.8%.
With `C[C@H]1[C@H]2CC[C@H]3[C@@H]4CC=C5C[C@@H](N(C)C)CC[C@]5(C)[C@H]4CC[C@]23CN1C` [Conessine], the remaining activity at 1.25 µM in assay [1] (Well no.=3100) is 94%. Besides, the remaining activity at 3.75 µM in assay [2] (Well no.=3100) was found to be 93.7%.
With `Nc1c(/N=N/c2ccc(-c3ccc(/N=N/c4cc(S(=O)(=O)O)c5ccccc5c4N)cc3)cc2)cc(S(=O)(=O)O)c2ccccc12` [Congo Red], the remaining activity at 1.25 µM in assay [1] (Well no.=8614) stood at 101%. Moreover, the remaining activity at 3.75 µM in assay [2] (Well no.=8614) stood at 104%.
On to `Cc1nc2c([nH]1)-c1ccccc1N(C(=O)c1ccc(NC(=O)c3ccccc3-c3ccccc3)cc1)CC2` [Conivaptan (hydrochloride)], for which, in assay [1] (Well no.=6463), the remaining activity at 1.25 µM was 99.7%. The remaining activity at 3.75 µM in assay [2] (Well no.=6463) came out at 101%.
As to `c1c2c(cc3c1OCO3)-c1cc3ccc4c(c3c[n+]1CC2)OCO4` [Coptisine (chloride)], the remaining activity at 1.25 µM in assay [1] (Well no.=8071) amounted to 106%. Also, the remaining activity at 3.75 µM in assay [2] (Well no.=8071) is 101%.
Take `Nc1ncnc2c1ncn2[C@@H]1O[C@H](CO)C[C@H]1O` [Cordycepin]: the remaining activity at 1.25 µM in assay [1] (Well no.=7860) stood at 101%. The remaining activity at 3.75 µM in assay [2] (Well no.=7860) amounted to 95.9%.
On to `C[C@]12CCC(=O)C=C1CC[C@@H]1[C@@H]2CC[C@@]2(C)[C@H]1CC[C@]2(O)C(=O)CO` [Cortexolone], for which, in assay [1] (Well no.=1509), the remaining activity at 1.25 µM stood at 93.1%. The remaining activity at 3.75 µM in assay [2] (Well no.=1509) is 93%.
Consider `C[C@]12C[C@H](O)[C@H]3[C@@H](CCC4=CC(=O)CC[C@@]43C)[C@@H]1CC[C@@H]2C(=O)CO` [Corticosterone], for which the remaining activity at 1.25 µM in assay [1] (Well no.=285) came to 93.6%; in assay [1] (Well no.=1928), 99.3%; in assay [1] (Well no.=7075) it was 104%. Also, the values for the remaining activity at 3.75 µM in assay [2] (Well no.=285), in assay [2] (Well no.=1928) and in assay [2] (Well no.=7075) were 92.1%, 96.3% and 105%, respectively.
On to `CC(=O)OCC(=O)[C@@]1(O)CC[C@H]2[C@@H]3CCC4=CC(=O)CC[C@]4(C)[C@H]3C(=O)C[C@@]21C` [Cortisone 21-acetate], for which the remaining activity at 1.25 µM in assay [1] (Well no.=172) turned out to be 92.9%. Further, in assay [2] (Well no.=172), the remaining activity at 3.75 µM was 92.8%.
For `CC(=O)OCC(=O)[C@@]1(O)CC[C@H]2[C@@H]3CCC4=CC(=O)CC[C@]4(C)[C@H]3C(=O)C[C@@]21C` [Cortisone (acetate)], the remaining activity at 1.25 µM in assay [1] (Well no.=6321) came out at 106%. For the same molecule, the remaining activity at 3.75 µM in assay [2] (Well no.=6321) is 105%.
Regarding `C[C@]12CCC(=O)C=C1CC[C@@H]1[C@@H]2C(=O)C[C@@]2(C)[C@H]1CC[C@]2(O)C(=O)CO` [Cortisone], the remaining activity at 1.25 µM in assay [1] (Well no.=381) was determined as 90.6%; in assay [1] (Well no.=6485), 101%; in assay [1] (Well no.=7431), 102%. For the same molecule, the remaining activity at 3.75 µM was determined as 93.5% in assay [2] (Well no.=381), 101% in assay [2] (Well no.=6485) and 100% in assay [2] (Well no.=7431).
Take `C[C@]12CCC(=O)C=C1CC[C@@H]1[C@@H]2CC[C@@]2(C)[C@H]1CC[C@]2(O)C(=O)CO` [Cortodoxone]: the remaining activity at 1.25 µM in assay [1] (Well no.=7330) stood at 98.9%. For the same molecule, in assay [2] (Well no.=7330), the remaining activity at 3.75 µM stood at 98%.
Regarding `COc1cc2c(cc1OC)[C@H]1[C@@H](C)c3ccc(OC)c(OC)c3CN1CC2` [Corydaline], the remaining activity at 1.25 µM in assay [1] (Well no.=3252) was determined as 101%. The remaining activity at 3.75 µM in assay [2] (Well no.=3252) came out at 102%.
For `COC(=O)[C@H]1[C@H]2C[C@H]3c4[nH]c5ccccc5c4CCN3C[C@@H]2CC[C@@H]1O` [Corynanthine], in assay [1] (Well no.=3795), the remaining activity at 1.25 µM was 97.4%. For the same molecule, the remaining activity at 3.75 µM in assay [2] (Well no.=3795) came out at 103%.
Take `C=C1C(=O)O[C@@H]2/C=C(\C)CC/C=C(\C)CC[C@@H]12` [Costunolide]: the remaining activity at 1.25 µM is 101% in assay [1] (Well no.=5230) and 102% in assay [1] (Well no.=6634). Besides, the figures for the remaining activity at 3.75 µM in assay [2] (Well no.=5230) and in assay [2] (Well no.=6634) were 99.1% and 101%, respectively.
Turning to `CN1C(=O)CC[C@H]1c1cccnc1` [Cotinine], in assay [1] (Well no.=7163), the remaining activity at 1.25 µM was determined as 97.7%. Moreover, in assay [2] (Well no.=7163), the remaining activity at 3.75 µM amounted to 96.3%.
In the case of `CO[C@H]1[C@H](OC(=O)c2ccc(C)[nH]2)[C@H](O)[C@@H](Oc2ccc3c(O)c(NC(=O)c4c[nH]c(C(=O)Nc5c(O)c6ccc(O[C@H]7OC(C)(C)[C@@H](OC)[C@H](OC(=O)c8ccc(C)[nH]8)[C@@H]7O)c(C)c6oc5=O)c4C)c(=O)oc3c2C)OC1(C)C` [Coumermycin A1], in assay [1] (Well no.=3175), the remaining activity at 1.25 µM worked out at 105%. Further, in assay [2] (Well no.=3175), the remaining activity at 3.75 µM was 104%.
Consider `O=c1oc2cc(O)ccc2c2oc3cc(O)ccc3c12` [Coumestrol], for which, in assay [1] (Well no.=3514), the remaining activity at 1.25 µM worked out at 100%. For the same molecule, the remaining activity at 3.75 µM in assay [2] (Well no.=3514) was 93.2%.
With `CN(CC(=O)O)C(=N)N` [Creatine], the remaining activity at 1.25 µM in assay [1] (Well no.=7457) amounted to 101%. The remaining activity at 3.75 µM in assay [2] (Well no.=7457) was 103%.
As for `CN1CC(=O)NC1=N` [Creatinine], the figures for the remaining activity at 1.25 µM in assay [1] (Well no.=5324) and in assay [1] (Well no.=6967) were 96.6% and 104%, respectively. Besides, the values for the remaining activity at 3.75 µM in assay [2] (Well no.=5324) and in assay [2] (Well no.=6967) were 92.2% and 101%, respectively.
Regarding `C[C@@H](Oc1cc(-c2cnn(C3CCNCC3)c2)cnc1N)c1c(Cl)ccc(F)c1Cl` [Crizotinib], in assay [1] (Well no.=5612), the remaining activity at 1.25 µM came to 99.8%. For the same molecule, in assay [2] (Well no.=5612), the remaining activity at 3.75 µM worked out at 101%.
Take `CN(C)c1ccc(C(=C2C=CC(=[N+](C)C)C=C2)c2ccc(N(C)C)cc2)cc1` [Crystal violet]: the remaining activity at 1.25 µM in assay [1] (Well no.=5000) came to 101%. In addition, in assay [2] (Well no.=5000), the remaining activity at 3.75 µM was 101%.
As for `CC(C)(OO)c1ccccc1` [Cumene hydroperoxide], the remaining activity at 1.25 µM in assay [1] (Well no.=3843) worked out at 103%. For the same molecule, the remaining activity at 3.75 µM in assay [2] (Well no.=3843) came out at 100%.
In the case of `COc1cc(/C=C/C(=O)CC(=O)/C=C/c2ccc(O)c(OC)c2)ccc1O` [Curcumin], the results for the remaining activity at 1.25 µM in assay [1] (Well no.=3177) and in assay [1] (Well no.=3949) were 112% and 106%, respectively. The figures for the remaining activity at 3.75 µM in assay [2] (Well no.=3177) and in assay [2] (Well no.=3949) were 105% and 102%, respectively.
Consider `C=C1C[C@@]2(O)O[C@@]3(C[C@H]2C(C)C)[C@@H](C)CC[C@@H]13` [Curcumol], for which, in assay [1] (Well no.=5202), the remaining activity at 1.25 µM is 90.5%. For the same molecule, the remaining activity at 3.75 µM in assay [2] (Well no.=5202) is 85.6%.
